Measured values reported in ChEMBL document CHEMBL4765464, “Discovery of BMS-986144, a Third-Generation, Pan-Genotype NS3/4A Protease Inhibitor for the Treatment of Hepatitis C Virus Infection” (J Med Chem, 2020).

Tests used:
[1] = Inhibition of recombinant full length NS3/4A protease in Hepatitis C virus subtype 1a replicon infected in human HuH7 cells preincubated for 3 days followed by substrate addition and measured after 2 hrs by renilla luciferase reporter gene assay; type: cell-based; details: Huh-7
[2] = Metabolic stability in human liver microsomes assessed as half-life incubated for 5 to 45 mins in presence of NADPH by LC-MS analysis; type: ADME, Microsome; details: time 5-45 min
[3] = Inhibition of recombinant full length NS3/4A D168V mutant protease in Hepatitis C virus subtype 1b replicon infected in human HuH7 cells preincubated for 3 days followed by substrate addition and measured after 2 hrs by renilla luciferase reporter gene assay; type: cell-based; details: Huh-7
[4] = Inhibition of recombinant full length NS3/4A protease in Hepatitis C virus subtype 3a infected in human HuH7 cells using Ac-Asp-Glu-Asp (EDANS)-Glu-Glu-Abu-(COO) Ala-Ser-Lys (DABCYL)-NH2 as substrate by FRET assay; details: Huh-7
[5] = Inhibition of recombinant full length NS3/4A protease in Hepatitis C virus subtype 1b replicon infected in human HuH7 cells preincubated for 3 days followed by substrate addition and measured after 2 hrs by renilla luciferase reporter gene assay; type: cell-based; details: Huh-7
[6] = Inhibition of recombinant full length NS3/4A protease in Hepatitis C virus subtype 2a replicon infected in human HuH7 cells preincubated for 3 days followed by substrate addition and measured after 2 hrs by renilla luciferase reporter gene assay; type: cell-based; details: Huh-7
[7] = Inhibition of recombinant full length NS3/4A R155K mutant protease in Hepatitis C virus subtype 1a replicon infected in human HuH7 cells preincubated for 3 days followed by substrate addition and measured after 2 hrs by renilla luciferase reporter gene assay; type: cell-based; details: Huh-7
[8] = Inhibition of recombinant full length NS3/4A protease in Hepatitis C virus subtype 3a replicon infected in human HuH7 cells preincubated for 3 days followed by substrate addition and measured after 2 hrs by renilla luciferase reporter gene assay; type: cell-based; details: Huh-7
[9] = AUC in cynomolgus monkey at 3 mg/kg, po or 1 mg/kg, iv; type: ADME, organism-based, Macaca fascicularis; design: dose 3 mg/kg; details: in vivo
[10] = Drug concentration in rat plasma at 5 mg/kg, po measured upto 24 hrs; type: ADME, organism-based; details: read-out: Ct
[11] = Clearance in dog at 3 mg/kg, po or 1 mg/kg, iv; type: ADME, organism-based, Canis lupus familiaris; details: in vivo
[12] = Oral bioavailability in rat at 5 mg/kg; type: ADME, organism-based; details: in vivo
[13] = Drug concentration in rat liver at 5 mg/kg, po measured upto 24 hrs; type: ADME, organism-based; details: read-out: Ct
[14] = AUC in rat at 5 mg/kg, po or 1 mg/kg, iv; type: ADME, organism-based; design: dose 5 mg/kg; details: in vivo
[15] = Clearance in rat at 5 mg/kg, po or 1 mg/kg, iv; type: ADME, organism-based; details: in vivo
[16] = Drug concentration in dog plasma at 3 mg/kg, po measured upto 24 hrs; type: ADME, organism-based, Canis lupus familiaris; details: read-out: Ct
[17] = Half-life in cynomolgus monkey at 3 mg/kg, po or 1 mg/kg, iv; type: ADME, organism-based, Macaca fascicularis; details: in vivo
[18] = Half-life in dog at 3 mg/kg, po or 1 mg/kg, iv; type: ADME, organism-based, Canis lupus familiaris; details: in vivo
[19] = AUC in dog at 3 mg/kg, po or 1 mg/kg, iv; type: ADME, organism-based, Canis lupus familiaris; design: dose 3 mg/kg; details: in vivo
[20] = AUC (0 to 24 hrs) in rat at 5 mg/kg, po; type: ADME, organism-based; design: time < 24 hr, route oral, dose 5 mg/kg; details: in vivo
[21] = Clearance in rat at 1 mg/kg, iv; type: ADME, organism-based; details: in vivo
[22] = Ratio of drug concentration in liver to plasma in rat at 5 mg/kg, po measured upto 24 hrs; type: ADME, organism-based; details: liver and plasma
[23] = Half life in rat at 1 mg/kg, iv; type: ADME, organism-based; details: in vivo
[24] = Cmax in rat at 5 mg/kg, po; type: ADME, organism-based; design: route oral, dose 5 mg/kg; details: in vivo
[25] = target: T1, Cytochrome P450 3A4 (Homo sapiens, UniProt P08684); assay: Inhibition of human CYP3A4 in human pooled liver microsomes at 0.002 to 40 uM in presence of midazolam as substrate preincubated in presence of NADPH followed by addition of substrate by LC-MS/MS analysis; type: ADME; details: TDE = time-dependent effect, dose 0.002-40 µM, time <=30 min
[26] = target: T1, Cytochrome P450 3A4; assay: Inhibition of human CYP3A4 in human pooled liver microsomes at 0.002 to 40 uM in presence of testosterone as substrate preincubated in presence of NADPH followed by addition of substrate by LC-MS/MS analysis; type: ADME; details: TDE = time-dependent effect, dose 0.002-40 µM, time <=30 min

T1 sequence (P08684 whole entry): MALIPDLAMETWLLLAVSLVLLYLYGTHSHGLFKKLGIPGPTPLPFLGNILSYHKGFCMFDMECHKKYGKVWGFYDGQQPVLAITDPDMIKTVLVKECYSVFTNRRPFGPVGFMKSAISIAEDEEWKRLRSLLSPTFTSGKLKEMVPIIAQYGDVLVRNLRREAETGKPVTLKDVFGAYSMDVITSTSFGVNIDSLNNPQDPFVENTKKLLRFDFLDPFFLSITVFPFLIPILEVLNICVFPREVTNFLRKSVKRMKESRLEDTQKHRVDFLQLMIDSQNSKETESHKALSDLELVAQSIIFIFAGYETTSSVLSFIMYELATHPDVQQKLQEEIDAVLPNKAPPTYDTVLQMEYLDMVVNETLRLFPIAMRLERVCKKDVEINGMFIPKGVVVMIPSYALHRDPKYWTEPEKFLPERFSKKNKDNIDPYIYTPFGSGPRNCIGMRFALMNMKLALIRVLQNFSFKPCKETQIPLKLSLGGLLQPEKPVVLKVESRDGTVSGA

SMILES | EC50 [1] [nM] | half-life [2] [min] | EC50 [3] [nM] | IC50 [4] [nM] | EC50 [5] [nM] | EC50 [6] [nM] | EC50 [7] [nM] | EC50 [8] [nM] | also measured
CC[C@@H]1CCCC/C=C\[C@@H]2C[C@@]2(C(=O)NS(=O)(=O)C2CC2)NC(=O)[C@@H]2C[C@@H](Oc3ncc(OC)c4ccc(Cl)cc34)CN2C(=O)[C@H]1NC(=O)OC(C)(C)C(F)(F)F | 0.84 | 48 | 4.8 | 29.5 | 0.47 | 2.1 | 45.2 |  | 
C=C[C@@H]1C[C@]1(NC(=O)[C@@H]1C[C@@H](Oc2ncc(OC)c3ccc(Cl)cc23)CN1C(=O)[C@@H](NC(=O)OC(C)(C)C)C(C)(C)C)C(=O)NS(=O)(=O)C1CC1 | 4 |  | 187 | 395 | 1.2 | 217 | 150 | 407 | AUC [9]: 0.65 µM·h; concentration at 24 h [10]: 33 nM; clearance [11]: 18.7 mL/min/kg; bioavailability [12]: 14%; concentration at 24 h [13]: 15000 nM; AUC [14]: 1.2 µM·h; clearance [15]: 38 mL/min/kg; concentration at 24 h [16]: < 10 nM; half-life [17]: 78 min; half-life [18]: 60 min; AUC [19]: 2.2 µM·h
COc1cnc(O[C@@H]2C[C@H]3C(=O)N[C@]4(C(=O)NS(=O)(=O)C5CC5)C[C@H]4/C=C\CC[C@H](C)C[C@@H](C)[C@H](NC(=O)OC(C)(C)C)C(=O)N3C2)c2cc(Cl)ccc12 | 5 |  | 25 | 50 | 4 | 19 | 700 |  | 
CC[C@@H]1C[C@H](C)CC/C=C\[C@@H]2C[C@@]2(C(=O)NS(=O)(=O)C2(C)CC2)NC(=O)[C@@H]2C[C@@H](Oc3ncc(OC)c4ccccc34)CN2C(=O)[C@H]1NC(=O)OC(C)(C)C(F)(F)F | 0.8 | 23 | 5.4 | 1.9 | 0.4 | 1.1 | 5.4 | 7.4 | concentration at 24 h [10]: 229 nM; bioavailability [12]: 42%; concentration at 24 h [13]: 2670 nM; AUC(0-t) at 24 h [20]: 22.5 µM·h; clearance [21]: 1.7 mL/min/kg; Kp at 24 h [22]: 12; half-life [23]: 438 min; Cmax [24]: 3030 nM
COc1cnc(O[C@@H]2C[C@H]3C(=O)N[C@]4(C(=O)NS(=O)(=O)C5CC5)C[C@H]4/C=C\CCCC[C@@H](C)[C@H](NC(=O)OC(C)(C)C)C(=O)N3C2)c2cc(Cl)ccc12 | 0.9 | 11.5 | 1.9 | 11 | 0.25 | 1.1 | 10.7 | 75.5 | 
COc1cnc(O[C@@H]2C[C@H]3C(=O)N[C@]4(C(=O)NS(=O)(=O)C5CC5)C[C@H]4/C=C\CCCCC[C@H](NC(=O)OC(C)(C)C)C(=O)N3C2)c2cc(Cl)ccc12 |  | 6.4 |  | 51 |  |  |  |  | 
COc1cnc(O[C@@H]2C[C@H]3C(=O)N[C@]4(C(=O)NS(=O)(=O)C5CC5)C[C@H]4/C=C\CC[C@@H](C)C[C@@H](C)[C@H](NC(=O)OC(C)(C)C)C(=O)N3C2)c2cc(Cl)ccc12 | 1.2 | 6.7 | 1.3 | 4.4 | 0.6 | 1.2 | 4 |  | 
CC[C@@H]1C[C@H](C)CC/C=C\[C@@H]2C[C@@]2(C(=O)NS(=O)(=O)C2(C)CC2)NC(=O)[C@@H]2C[C@@H](Oc3nccc4cc(O)c(F)cc34)CN2C(=O)[C@H]1NC(=O)OC(C)(C)C(F)(F)F |  | 37 | 9.5 |  | 1.3 | 1.9 | 3.9 | 48 | inhibition (INH) [25]: Tde; inhibition (INH) [26]: Tde
CC[C@@H]1C[C@H](C)CC/C=C\[C@@H]2C[C@@]2(C(=O)NS(=O)(=O)C2CC2)NC(=O)[C@@H]2C[C@@H](Oc3ncc(OC)c4ccccc34)CN2C(=O)[C@H]1NC(=O)OC(C)(C)C(F)(F)F | 1 | 37.7 | 17 | 1.2 | 0.5 | 1.5 | 8.3 | 8 | concentration at 24 h [10]: 72 nM; bioavailability [12]: 61%; concentration at 24 h [13]: 2360 nM; AUC(0-t) at 24 h [20]: 18.8 µM·h; clearance [21]: 5.73 mL/min/kg; Kp at 24 h [22]: 33; half-life [23]: 288 min; Cmax [24]: 2950 nM
COc1cnc(O[C@@H]2C[C@H]3C(=O)N[C@]4(C(=O)NS(=O)(=O)C5(C)CC5)C[C@H]4/C=C\CC[C@@H](C)C[C@@H](C)[C@H](NC(=O)OC(C)(C)C(F)(F)F)C(=O)N3C2)c2ccccc12 | 0.8 | 15 | 4.7 | 0.9 | 0.3 | 0.6 | 1.6 | 5 | concentration at 24 h [10]: 226 nM; bioavailability [12]: 60%; concentration at 24 h [13]: 5740 nM; AUC(0-t) at 24 h [20]: 34.2 µM·h; clearance [21]: 1.7 mL/min/kg; Kp at 24 h [22]: 25; half-life [23]: 342 min; Cmax [24]: 5290 nM
C[C@@H]1CC/C=C\[C@@H]2C[C@@]2(C(=O)NS(=O)(=O)C2CC2)NC(=O)[C@@H]2C[C@@H](Oc3nccc4ccc(F)cc34)CN2C(=O)[C@@H](NC(=O)OC(C)(C)C(F)(F)F)[C@H](C)C1 | 1 | 10 |  | 20 | 0.3 | 3 | 21 | 196 | 
CC[C@@H]1C[C@H](C)CC/C=C\[C@@H]2C[C@@]2(C(=O)NS(=O)(=O)C2CC2)NC(=O)[C@@H]2C[C@@H](Oc3ncc(OC)c4ccccc34)CN2C(=O)[C@H]1NC(=O)OC(C)(C)C | 2.2 | 8.6 | 18 | 0.16 | 1.5 | 5.1 | 12.6 |  | 
COc1cnc(O[C@@H]2C[C@H]3C(=O)N[C@]4(C(=O)NS(=O)(=O)C5CC5)C[C@H]4/C=C\CCCC[C@@H](C)[C@H](NC(=O)OC(C)(C)C(F)(F)F)C(=O)N3C2)c2cc(Cl)ccc12 | 0.6 | 30.3 | 6.8 | 12.8 | 0.48 | 1.7 | 17.9 | 42.5 | 
COc1cnc(O[C@@H]2C[C@H]3C(=O)N[C@]4(C(=O)NS(=O)(=O)C5CC5)C[C@H]4/C=C\CCCC[C@@H](C)[C@H](NC(=O)OC(C)(C)C(F)(F)F)C(=O)N3C2)c2ccccc12 | 0.8 | 18.6 | 21 | 2.2 | 0.3 | 1.5 | 11.5 | 37.3 | 
[2H]C([2H])([2H])Oc1cnc(O[C@@H]2C[C@H]3C(=O)N[C@]4(C(=O)NS(=O)(=O)C5(C)CC5)C[C@H]4/C=C\CC[C@@H](C)C[C@@H](C)[C@H](NC(=O)OC(C)(C)C(F)(F)F)C(=O)N3C2)c2ccccc12 | 0.6 | 18 | 2.3 |  | 0.4 | 0.5 | 1.6 | 4 | 
